Values of other authors, collected in the PKSmart pharmacokinetics tables (Seal et al. 2025).
Where a SMILES comes first, the peptide text is derived from it. Bridges are numbered along the chain shown (N, C = ends). [ ]: non-standard residue; d: D form. Mpa = O=C(O)CCS

Assay: Lombardo, Berellini, Obach 2018, Drug Metab Dispos 46:1466, doi 10.1124/dmd.118.082966
Conditions: human; for MRT / Vd / clearance / half-life: in vivo, iv; for fraction unbound: plasma

In the case of `COc1ccc2c(c1)N(C[C@H](C)CN(C)C)c1ccccc1S2`, the MRT is listed as 21 h, the Vd is listed as 12 L/kg and the clearance is listed as 9.9 mL/min/kg. For the same compound, the half-life was 30 h.
In the case of `COC(=O)NC(C(=O)N1CCCC1C(=O)Nc1ccc([C@@H]2CC[C@@H](c3ccc(NC(=O)C4CCCN4C(=O)C(NC(=O)OC)C(C)C)cc3)N2c2ccc(C(C)(C)C)cc2)cc1)C(C)C` (some centres undefined), the MRT is given as 23.1 h, the Vd is given as 2.32 L/kg and the clearance is given as 1.68 mL/min/kg. The half-life was 28.5 h and the fraction unbound was 0.001.
For `O=C(NC1CC[C@@H](c2cccc(F)c2F)CN(CC(F)(F)F)C1=O)N1CCC(n2c(=O)[nH]c3ncccc32)CC1` (some centres undefined), the MRT is given as 2.5 h, the Vd is given as 0.86 L/kg and the clearance is given as 5.8 mL/min/kg. The half-life was 8.2 h.
For `COc1cc(C2c3cc4c(cc3C(OC3OC5COC(C)OC5C(O)C3N(C)C)C3COC(=O)C23)OCO4)cc(OC)c1O` (centres undefined), the MRT is given as 17 h, the Vd is given as 0.3 L/kg and the clearance is given as 0.4 mL/min/kg. For the same compound, the half-life was 14 h and the fraction unbound was 0.013.
In the case of `CCOC(=O)C(CCc1ccccc1)NC(C)C(=O)N1CC2(CC1C(=O)O)SCCS2` (centres undefined), the MRT is listed as 0.61 h, the Vd is listed as 0.43 L/kg and the clearance is listed as 11.9 mL/min/kg. The half-life was 8.6 h.
For `NC1CCN(c2c(F)cc3c(=O)c(C(=O)O)cn(C4CC4)c3c2Cl)C1` (centres undefined), the MRT is listed as 6.7 h, the Vd is listed as 1.9 L/kg and the clearance is listed as 4.7 mL/min/kg. The half-life was 5.4 h.
In the case of `N=C(N)NCCCC1NC(=O)CCSSCC(C(N)=O)NC(=O)C2CCCN2C(=O)C(Cc2c[nH]c3ccccc23)NC(=O)C(CC(=O)O)NC(=O)CNC1=O` (centres undefined) ([Mpa]RGDWPC-NH2; disulfide 1-7; configuration not given here), the MRT is listed as 2.45 h, the Vd is listed as 0.42 L/kg and the clearance is listed as 2.88 mL/min/kg. The half-life was 2.12 h.
In the case of `CN(C)CCNC(=O)c1cccc2cc3ccccc3nc12`, the MRT is listed as 3.49 h, the Vd is listed as 3.41 L/kg and the clearance is listed as 16.3 mL/min/kg. The half-life was 2.08 h and the fraction unbound was 0.03.
In the case of `NC(=O)CN1CC(O)CC1=O` (centres undefined), the MRT is listed as 4.9 h, the Vd is listed as 0.55 L/kg and the clearance is listed as 1.8 mL/min/kg. For the same compound, the half-life was 7.5 h.
In the case of `Nc1nc(CC(=O)Nc2ccc(CCNC[C@H](O)c3ccccc3)cc2)cs1`, the MRT is listed as 29.3 h, the Vd is listed as 23.8 L/kg and the clearance is listed as 13.6 mL/min/kg. The half-life was 50 h and the fraction unbound was 0.29.
For `COc1ccc(OC)c([C@H](O)CNC(=O)CN)c1`, the MRT is given as 0.4 h, the Vd is given as 0.67 L/kg and the clearance is given as 27.9 mL/min/kg. For the same compound, the half-life was 0.6 h and the fraction unbound was 0.7.
In the case of `NCCC(O)C(=O)N[C@@H]1C[C@H](N)[C@@H](O[C@H]2O[C@H](CN)CC[C@H]2N)[C@H](O)[C@H]1O[C@H]1O[C@H](CO)[C@@H](O)[C@H](N)[C@H]1O` (some centres undefined), the MRT is given as 2.73 h, the Vd is given as 0.21 L/kg and the clearance is given as 1.28 mL/min/kg. For the same compound, the half-life was 2.46 h.
For `O=c1ccc2ccccc2o1`, the MRT is listed as 0.78 h, the Vd is listed as 1.1 L/kg and the clearance is listed as 23.6 mL/min/kg. For the same compound, the half-life was 0.8 h and the fraction unbound was 0.17.
For `C[N+]1(CC2CC2)[C@@H]2C[C@@H](OC(=O)C(CO)c3ccccc3)C[C@H]1[C@@H]1O[C@@H]12` (some centres undefined), the MRT is listed as 0.74 h, the Vd is listed as 1.12 L/kg and the clearance is listed as 25 mL/min/kg. For the same compound, the half-life was 0.83 h.
In the case of `COc1ccccc1OCCNCC(O)COc1cccc2[nH]c3ccccc3c12` (centres undefined), the MRT is listed as 2.8 h, the Vd is listed as 1.3 L/kg and the clearance is listed as 7.8 mL/min/kg. For the same compound, the half-life was 2.4 h.
For `CC(=O)Nc1c(I)c(NC(C)=O)c(I)c(C(=O)O)c1I`, the MRT is listed as 2.6 h, the clearance is listed as 1.7 mL/min/kg and the fraction unbound is listed as 1.
In the case of `Cc1onc(-c2c(Cl)cccc2Cl)c1C(=O)NC1C(=O)N2C(C(=O)O)C(C)(C)S[C@H]12` (some centres undefined), the MRT is listed as 0.92 h, the Vd is listed as 0.11 L/kg and the clearance is listed as 2 mL/min/kg. The half-life was 0.88 h.
For `CC(N)CCCC(C)(C)O` (centres undefined), the MRT is given as 3.24 h, the Vd is given as 2.14 L/kg and the clearance is given as 10.7 mL/min/kg. The half-life was 2.5 h.
In the case of `COc1cc(CC2c3c(cc(OC)c(OC)c3OC)CC[N+]2(C)CCCOC(=O)CCC(=O)OCCC[N+]2(C)CCc3cc(OC)c(OC)c(OC)c3C2Cc2cc(OC)c(OC)c(OC)c2)cc(OC)c1OC` (centres undefined), the MRT is given as 1.4 h, the Vd is given as 0.22 L/kg and the clearance is given as 2.7 mL/min/kg. For the same compound, the half-life was 1.7 h and the fraction unbound was 0.53.
In the case of `CCC(=O)O[C@](Cc1ccccc1)(c1ccccc1)[C@H](C)CN(C)C`, the MRT is given as 13 h, the Vd is given as 12 L/kg and the clearance is given as 15 mL/min/kg. For the same compound, the half-life was 18 h and the fraction unbound was 0.24.
For `C[C@]12C[C@]3(O)O[C@@H](O1)[C@@]1(COC(=O)c4ccccc4)[C@@H]3C[C@]12O[C@@H]1O[C@H](CO)[C@@H](O)[C@H](O)[C@H]1O`, the fraction unbound is listed as 0.77.
In the case of `C[C@H]1CCc2c(N3CCC(O)CC3)c(F)cc3c(=O)c(C(=O)O)cn1c23`, the MRT is listed as 7.87 h, the Vd is listed as 0.25 L/kg and the clearance is listed as 0.54 mL/min/kg. The half-life was 6.04 h.
In the case of `Cc1ccc(S(=O)(=O)NC(=O)NN2C[C@H]3CCC[C@@H]3C2)cc1`, the MRT is listed as 17.5 h, the Vd is listed as 0.43 L/kg and the clearance is listed as 0.41 mL/min/kg. For the same compound, the half-life was 16.4 h and the fraction unbound was 0.03.
In the case of `COc1ccc(/C=C\c2cc(OC)c(OC)c(OC)c2)cc1NC(=O)C(N)CO` (centres undefined), the MRT is listed as 0.32 h, the Vd is listed as 0.44 L/kg and the clearance is listed as 22.6 mL/min/kg. The half-life was 0.26 h.
For `Cc1ccc(Sc2ccccc2N2CCNCC2)c(C)c1`, the MRT is listed as 101 h, the Vd is listed as 35.3 L/kg and the clearance is listed as 5.8 mL/min/kg. The half-life was 72 h and the fraction unbound was 0.02.
For `CN(C)C(=N)NC(=N)N`, the MRT is given as 1.4 h, the Vd is given as 0.64 L/kg and the clearance is given as 7.4 mL/min/kg. For the same compound, the half-life was 1.7 h.
For `CCn1cc(C(=O)O)c(=O)c2cc(F)c(N3CCNCC3)cc21`, the MRT is listed as 4.5 h, the Vd is listed as 1.88 L/kg and the clearance is listed as 6.96 mL/min/kg. For the same compound, the half-life was 4.45 h and the fraction unbound was 0.13.
In the case of `O=C(Cn1ccnc1[N+](=O)[O-])NCC(O)C(F)(F)F` (centres undefined), the MRT is given as 3.86 h, the Vd is given as 0.69 L/kg and the clearance is given as 3 mL/min/kg. The half-life was 3.45 h.
In the case of `Cc1nnc(SCC2=C(C(=O)O)N3C(=O)C(NC(=O)C(O)c4ccccc4)[C@H]3SC2)s1` (some centres undefined), the MRT is listed as 0.83 h, the Vd is listed as 0.13 L/kg and the clearance is listed as 2.6 mL/min/kg. For the same compound, the half-life was 1 h.
For `CC(NC(CCc1ccccc1)C(=O)O)C(=O)N1Cc2ccccc2CC1C(=O)O` (centres undefined), the MRT is listed as 2.3 h, the Vd is listed as 0.13 L/kg and the clearance is listed as 0.93 mL/min/kg. For the same compound, the half-life was 2.3 h.
For `Cc1cc(C)c2c(c1)[C@@H](N(Cc1cc(C(F)(F)F)cc(C(F)(F)F)c1)c1nnn(C)n1)CCCN2CC1CCC(C(=O)O)CC1` (some centres undefined), the MRT is listed as 36.1 h, the Vd is listed as 1.82 L/kg and the clearance is listed as 0.84 mL/min/kg. The half-life was 51.9 h and the fraction unbound was 0.001.
For `O=C(O[C@H]1CC2CC[C@@H](C1)[N+]21CCCC1)C(O)(c1ccccc1)c1ccccc1`, the MRT is listed as 6.1 h, the Vd is listed as 5.1 L/kg and the clearance is listed as 13.9 mL/min/kg. For the same compound, the half-life was 5 h and the fraction unbound was 0.33.
For `CCOc1cc([C@@H](CS(C)(=O)=O)N2C(=O)c3cccc(CC(C)=O)c3C2=O)ccc1OC`, the clearance is given as 2.38 mL/min/kg, the half-life is given as 6.03 h and the fraction unbound is given as 0.32.
In the case of `CCc1cnn2c(NCc3ccc[n+]([O-])c3)cc(N3CCCC[C@H]3CCO)nc12`, the MRT is listed as 1.1 h, the Vd is listed as 0.32 L/kg and the clearance is listed as 4.65 mL/min/kg. The half-life was 2.1 h.
